Source: ChEMBL document CHEMBL1201862, “PubChem BioAssay data set” (2004)
Calls of active or inactive are those of the source.

Key:
Beta-galactosidase = Beta-galactosidase (Escherichia coli, UniProt Q8VNN2); experiment: Dose response counterscreen for EBI2 assay utilizing the enzyme, b-galactosidase.; type: functional
[1] = biological target: Nuclear receptor subfamily 5 group A member 2 (Homo sapiens, UniProt O00482); type: functional, cell-based;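 note: HEK293T cells transfected with LRH-1 and a StAR promoter luciferase reporter; potency for inhibitors that lower LRH-1 driven reporter light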
Steroidogenic factor 1 = Steroidogenic factor 1 (Homo sapiens, UniProt Q13285); experiment: Counterscreen for inverse agonists of the liver receptor homolog-1 (LRH-1; NR5A2): Luminescence-based cell-based high throughput dose response assay to identify inverse agonists of the Steroidogenic Factor 1 Nuclear Receptor (SF1; NR5A1).; type: functional
[2] = StAR promoter reporter inhibition counter-screen, dose response, counter-screen for LRH-1 inverse agonist project, cell-based, luminescence, luciferase reporter (AID 651969); type: functional
[3] = biological target: T1, High affinity choline transporter 1 (Homo sapiens, UniProt Q9GZV3); experiment: CHT inhibitors, dose response, cell-based, 5-point CRC, membrane potential dye (AID 504840); type: functional
T1 sequence (Q9GZV3 whole entry): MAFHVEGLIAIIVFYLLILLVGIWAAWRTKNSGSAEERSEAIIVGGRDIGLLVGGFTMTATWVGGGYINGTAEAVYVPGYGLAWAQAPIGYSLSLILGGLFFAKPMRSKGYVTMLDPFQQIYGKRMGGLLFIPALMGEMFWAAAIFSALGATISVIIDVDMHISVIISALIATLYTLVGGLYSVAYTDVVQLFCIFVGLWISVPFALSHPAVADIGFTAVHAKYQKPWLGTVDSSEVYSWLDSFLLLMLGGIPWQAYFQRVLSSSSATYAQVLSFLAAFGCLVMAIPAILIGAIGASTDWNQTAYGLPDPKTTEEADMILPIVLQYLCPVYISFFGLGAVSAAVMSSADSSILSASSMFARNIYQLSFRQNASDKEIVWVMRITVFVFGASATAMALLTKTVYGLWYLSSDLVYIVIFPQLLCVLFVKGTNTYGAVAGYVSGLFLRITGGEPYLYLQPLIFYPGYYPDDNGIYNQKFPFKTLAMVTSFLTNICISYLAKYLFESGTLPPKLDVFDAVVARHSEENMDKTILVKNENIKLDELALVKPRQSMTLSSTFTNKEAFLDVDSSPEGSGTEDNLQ

[4] = biological target: T1, High affinity choline transporter 1; experiment: CHT inhibitors, dose response, cell-based, 10-point CRC, membrane potential dye (AID 588401); type: functional;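 note: membrane potential dye fluorescence of choline-evoked depolarization via CHT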
[5] = biological target: T2, Probable nicotinate-nucleotide adenylyltransferase (Staphylococcus aureus (strain N315), UniProt P65502); type: functional, Staphylococcus aureus subsp. aureus N315;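 for IC50 Mean: confirmatory dose-response retesting of NadD inhibitor hits first found in an ultra-high-throughput screen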
[6] = biological target: T2, Probable nicotinate-nucleotide adenylyltransferase; type: functional, Staphylococcus aureus subsp. aureus N315; details: read-out: IC50_Mean
[7] = HeLa cell cytotoxicity, dose response, cytotoxicity control for MgcRacGAP inhibitor project (AID 624300); type: functional
[8] = biological target: T3, Rac GTPase-activating protein 1 (Homo sapiens, UniProt Q9H0H5); experiment: MgcRacGAP GTPase-activating activity inhibitors, confirmation, biochemical, ADP Hunter fluorescence, primary and confirmatory (AID 624330); type: functional
T3 sequence (Q9H0H5 whole entry): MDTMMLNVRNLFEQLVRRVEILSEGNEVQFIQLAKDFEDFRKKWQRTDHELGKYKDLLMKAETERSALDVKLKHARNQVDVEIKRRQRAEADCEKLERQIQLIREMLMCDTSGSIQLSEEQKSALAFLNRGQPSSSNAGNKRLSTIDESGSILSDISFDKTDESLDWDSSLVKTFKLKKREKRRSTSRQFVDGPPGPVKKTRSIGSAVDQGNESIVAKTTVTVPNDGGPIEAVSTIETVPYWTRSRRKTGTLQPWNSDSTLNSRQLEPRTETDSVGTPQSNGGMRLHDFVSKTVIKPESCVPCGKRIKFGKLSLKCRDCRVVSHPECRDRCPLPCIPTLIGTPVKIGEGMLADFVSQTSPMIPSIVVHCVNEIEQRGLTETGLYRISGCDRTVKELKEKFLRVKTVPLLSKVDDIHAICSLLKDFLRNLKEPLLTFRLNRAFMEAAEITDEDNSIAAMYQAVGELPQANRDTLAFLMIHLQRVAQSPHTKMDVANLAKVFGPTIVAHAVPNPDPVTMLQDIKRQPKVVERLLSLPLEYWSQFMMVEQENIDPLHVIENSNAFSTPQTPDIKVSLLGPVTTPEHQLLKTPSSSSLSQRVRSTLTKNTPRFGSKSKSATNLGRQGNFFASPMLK

[9] = biological target: T4, Heat shock factor protein 1 (Mus musculus, UniProt P38532); experiment: inhibition of MG132-induced HSE-luciferase signal, confirmation, cell-based, NIH3T3, luminescence, dose retest (AID 2382); type: functional;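 note: NIH3T3 fibroblasts with HSF1-driven luciferase reporter stressed by proteasome inhibitor MG132; luminescence from HSF1-driven luciferase expression after 8 hours of MG132 stress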
T4 sequence (P38532 whole entry): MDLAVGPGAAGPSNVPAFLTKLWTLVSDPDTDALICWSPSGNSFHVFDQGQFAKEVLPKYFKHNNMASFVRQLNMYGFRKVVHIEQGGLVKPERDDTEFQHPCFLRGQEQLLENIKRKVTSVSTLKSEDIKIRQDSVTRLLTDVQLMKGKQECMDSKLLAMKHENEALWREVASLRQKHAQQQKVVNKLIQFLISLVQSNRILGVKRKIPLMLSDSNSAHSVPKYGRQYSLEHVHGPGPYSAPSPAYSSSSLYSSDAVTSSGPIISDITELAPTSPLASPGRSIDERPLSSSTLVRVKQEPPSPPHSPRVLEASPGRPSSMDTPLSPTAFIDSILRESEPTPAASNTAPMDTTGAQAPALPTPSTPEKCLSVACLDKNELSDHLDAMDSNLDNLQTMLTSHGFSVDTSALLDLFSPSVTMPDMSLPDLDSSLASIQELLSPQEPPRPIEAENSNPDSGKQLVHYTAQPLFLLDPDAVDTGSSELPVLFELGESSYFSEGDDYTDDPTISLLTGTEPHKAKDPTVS

Vero = experiment: Vero cell toxicity, dose response, cytotoxicity control, plate reader, cherry-pick samples (AID 687020); type: functional, cell-based; details: Chlorocebus sabaeus
[10] = tested on: Streptococcus sp. 'group A'; experiment: growth inhibition of control SK(-) GAS strain, dose response, counter-screen for streptokinase expression inhibitor project, luminescence, kanamycin, BacTiterGlo, confirmation (AID 1900); type: functional, organism-based
Streptococcus = experiment: Group A Streptococcus viability loss, dose response, counter-screen for streptokinase expression inhibitor project, luminescence, BacTiterGlo (AID 1915); type: functional, organism-based;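 note: potency for reduction of bacterial viability or growth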
Melanocortin receptor 4 = Melanocortin receptor 4 (Homo sapiens, UniProt P32245); type: functional, cell-based;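 note: Cell-based assay with luminescence read-out, confirmatory dose-response testing for agonist activity of biased ligands at MC4R; human U2OS cells with tagged receptor and beta-arrestin; potency of agonists that increase receptor coupling to beta-arrestin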
H9c2 = experiment: cells; type: functional, cell-based; details: Rattus norvegicus, H9c2, Myocardium;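 note: confirmatory concentration-response retest of ultra-high-throughput screening hits for modulation of myocardial damage; cell death induced by hydrogen peroxide oxidative stress; compound pretreatment for 60 min then peroxide exposure for 2 h; potency is for protecting the cells against peroxide damage rather than for killing them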
[11] = biological target: DNA dC->dU-editing enzyme APOBEC-3G (Homo sapiens, UniProt Q9HC16); experiment: APOBEC3G deaminase inhibitors, SAR follow-up, biochemical, fluorescence, single-stranded DNA substrate (AID 602136); type: functional; details: read-out: IC50_Mean
[12] = biological target: DNA dC->dU-editing enzyme APOBEC-3A (Homo sapiens, UniProt P31941); experiment: SAR analysis of small molecule inhibitors of APOBEC3A DNA Deaminase via a fluorescence-based single-stranded DNA deaminase assay.; type: functional; details: read-out: IC50_Mean
Large T antigen = Large T antigen (Simian virus 40, UniProt P03070); type: functional, Betapolyomavirus macacae;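 note: Confirmatory-stage PubChem screen for compounds that inhibit SV40 T antigen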
[13] = biological target: T5, Mannose-6-phosphate isomerase (Homo sapiens, UniProt P34949); experiment: human PMI inhibitors, high substrate, primary screen, biochemical, fluorescence intensity, high mannose 6-phosphate (AID 1220)
T5 sequence (P34949 whole entry): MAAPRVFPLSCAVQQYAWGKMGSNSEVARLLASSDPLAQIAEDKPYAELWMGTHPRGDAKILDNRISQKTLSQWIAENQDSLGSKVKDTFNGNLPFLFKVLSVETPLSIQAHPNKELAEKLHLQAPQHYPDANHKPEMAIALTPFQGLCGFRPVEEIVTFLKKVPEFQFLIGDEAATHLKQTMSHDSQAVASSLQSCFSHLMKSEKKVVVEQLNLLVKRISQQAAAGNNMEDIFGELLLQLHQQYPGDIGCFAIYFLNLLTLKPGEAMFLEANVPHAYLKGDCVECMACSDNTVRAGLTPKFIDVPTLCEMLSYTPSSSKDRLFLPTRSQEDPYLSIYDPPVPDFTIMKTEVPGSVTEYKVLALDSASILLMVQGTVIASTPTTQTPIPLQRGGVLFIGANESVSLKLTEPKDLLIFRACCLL

[14] = biological target: T6, Histone-lysine N-methyltransferase NSD2 (Homo sapiens, UniProt O96028); type: biochemical
T6 sequence (O96028 whole entry): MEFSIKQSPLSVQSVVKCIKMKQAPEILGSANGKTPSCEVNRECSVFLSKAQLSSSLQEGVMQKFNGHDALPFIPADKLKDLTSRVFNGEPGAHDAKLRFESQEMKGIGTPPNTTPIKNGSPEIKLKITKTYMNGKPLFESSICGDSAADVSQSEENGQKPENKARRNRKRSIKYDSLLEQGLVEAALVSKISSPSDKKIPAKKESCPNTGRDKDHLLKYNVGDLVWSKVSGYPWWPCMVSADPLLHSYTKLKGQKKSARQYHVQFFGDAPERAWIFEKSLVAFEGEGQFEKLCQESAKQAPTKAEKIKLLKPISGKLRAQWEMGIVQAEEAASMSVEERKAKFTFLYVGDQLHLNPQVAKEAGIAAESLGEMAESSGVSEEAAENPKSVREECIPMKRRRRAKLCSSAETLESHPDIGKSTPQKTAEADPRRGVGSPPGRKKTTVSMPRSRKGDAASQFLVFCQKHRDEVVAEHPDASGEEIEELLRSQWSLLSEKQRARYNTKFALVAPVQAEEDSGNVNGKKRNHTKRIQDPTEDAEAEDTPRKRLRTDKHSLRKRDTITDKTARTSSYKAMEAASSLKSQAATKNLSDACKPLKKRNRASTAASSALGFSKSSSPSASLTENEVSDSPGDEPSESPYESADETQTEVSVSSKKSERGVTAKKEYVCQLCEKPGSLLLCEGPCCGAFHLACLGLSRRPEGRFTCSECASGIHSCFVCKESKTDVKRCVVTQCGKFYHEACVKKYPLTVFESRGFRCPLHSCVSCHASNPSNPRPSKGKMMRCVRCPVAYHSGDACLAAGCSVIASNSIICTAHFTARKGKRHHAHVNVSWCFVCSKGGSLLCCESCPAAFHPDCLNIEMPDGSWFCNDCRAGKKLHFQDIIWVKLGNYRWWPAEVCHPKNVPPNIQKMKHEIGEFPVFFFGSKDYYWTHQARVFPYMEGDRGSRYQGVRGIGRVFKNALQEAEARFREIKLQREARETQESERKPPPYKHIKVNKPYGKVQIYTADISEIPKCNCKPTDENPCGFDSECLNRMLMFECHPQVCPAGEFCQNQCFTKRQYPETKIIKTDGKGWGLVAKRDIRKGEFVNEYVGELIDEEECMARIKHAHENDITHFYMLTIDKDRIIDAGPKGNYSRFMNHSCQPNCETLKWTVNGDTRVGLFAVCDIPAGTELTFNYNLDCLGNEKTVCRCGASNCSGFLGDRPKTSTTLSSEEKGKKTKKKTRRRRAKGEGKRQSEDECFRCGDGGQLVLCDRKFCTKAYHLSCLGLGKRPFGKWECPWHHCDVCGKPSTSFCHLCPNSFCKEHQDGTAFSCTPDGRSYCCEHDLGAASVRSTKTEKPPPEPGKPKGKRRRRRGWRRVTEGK

Steroidogenic factor 1, sequence (Q13285 whole entry): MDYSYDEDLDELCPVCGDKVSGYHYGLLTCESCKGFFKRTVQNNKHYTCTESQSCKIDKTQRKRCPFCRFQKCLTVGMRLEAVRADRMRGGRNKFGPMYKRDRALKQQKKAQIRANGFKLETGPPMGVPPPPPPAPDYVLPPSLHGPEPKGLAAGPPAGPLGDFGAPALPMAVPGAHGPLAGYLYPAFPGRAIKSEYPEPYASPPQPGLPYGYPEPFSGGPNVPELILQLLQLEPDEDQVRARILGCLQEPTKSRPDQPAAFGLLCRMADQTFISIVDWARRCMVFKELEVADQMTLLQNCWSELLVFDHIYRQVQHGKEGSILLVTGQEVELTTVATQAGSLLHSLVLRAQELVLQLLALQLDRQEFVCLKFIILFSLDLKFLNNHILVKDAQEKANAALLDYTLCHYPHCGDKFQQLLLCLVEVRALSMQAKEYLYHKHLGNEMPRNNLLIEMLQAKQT
DNA dC->dU-editing enzyme APOBEC-3A, sequence (P31941 whole entry): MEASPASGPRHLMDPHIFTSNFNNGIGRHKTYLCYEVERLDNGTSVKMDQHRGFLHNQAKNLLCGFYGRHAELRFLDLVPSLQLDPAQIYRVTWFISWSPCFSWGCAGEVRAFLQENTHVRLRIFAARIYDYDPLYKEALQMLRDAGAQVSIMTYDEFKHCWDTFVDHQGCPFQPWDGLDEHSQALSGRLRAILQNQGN
Melanocortin receptor 4, sequence (P32245 whole entry): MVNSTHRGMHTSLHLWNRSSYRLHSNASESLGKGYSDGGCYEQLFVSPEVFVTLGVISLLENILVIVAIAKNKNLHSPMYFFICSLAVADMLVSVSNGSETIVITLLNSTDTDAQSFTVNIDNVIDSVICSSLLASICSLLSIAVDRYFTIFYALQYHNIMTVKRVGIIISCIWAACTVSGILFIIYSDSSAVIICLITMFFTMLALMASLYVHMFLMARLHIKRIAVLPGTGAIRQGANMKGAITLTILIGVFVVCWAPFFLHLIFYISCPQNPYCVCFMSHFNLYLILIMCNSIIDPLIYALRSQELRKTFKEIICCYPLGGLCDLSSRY
Nuclear receptor subfamily 5 group A member 2, sequence (O00482 whole entry): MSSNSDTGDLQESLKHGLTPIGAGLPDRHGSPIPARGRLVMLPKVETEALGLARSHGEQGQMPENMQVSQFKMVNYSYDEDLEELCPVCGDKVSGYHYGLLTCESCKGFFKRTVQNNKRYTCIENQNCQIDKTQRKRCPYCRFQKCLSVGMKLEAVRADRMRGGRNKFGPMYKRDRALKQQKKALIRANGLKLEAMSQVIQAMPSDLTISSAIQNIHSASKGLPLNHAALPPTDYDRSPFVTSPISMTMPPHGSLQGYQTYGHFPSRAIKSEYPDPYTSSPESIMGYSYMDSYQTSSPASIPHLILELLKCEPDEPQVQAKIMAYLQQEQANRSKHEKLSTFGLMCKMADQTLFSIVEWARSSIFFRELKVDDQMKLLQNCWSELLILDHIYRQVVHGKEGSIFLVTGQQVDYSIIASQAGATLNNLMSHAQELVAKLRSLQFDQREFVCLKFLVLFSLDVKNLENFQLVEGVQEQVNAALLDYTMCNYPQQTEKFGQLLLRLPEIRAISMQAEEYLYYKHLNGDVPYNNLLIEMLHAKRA
T2 sequence (P65502 whole entry): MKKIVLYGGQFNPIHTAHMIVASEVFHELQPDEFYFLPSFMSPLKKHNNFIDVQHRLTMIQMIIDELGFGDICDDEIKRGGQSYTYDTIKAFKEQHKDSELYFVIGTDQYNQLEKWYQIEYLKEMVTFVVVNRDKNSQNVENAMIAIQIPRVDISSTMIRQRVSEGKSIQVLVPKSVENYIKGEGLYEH
Beta-galactosidase, sequence (Q8VNN2 whole entry): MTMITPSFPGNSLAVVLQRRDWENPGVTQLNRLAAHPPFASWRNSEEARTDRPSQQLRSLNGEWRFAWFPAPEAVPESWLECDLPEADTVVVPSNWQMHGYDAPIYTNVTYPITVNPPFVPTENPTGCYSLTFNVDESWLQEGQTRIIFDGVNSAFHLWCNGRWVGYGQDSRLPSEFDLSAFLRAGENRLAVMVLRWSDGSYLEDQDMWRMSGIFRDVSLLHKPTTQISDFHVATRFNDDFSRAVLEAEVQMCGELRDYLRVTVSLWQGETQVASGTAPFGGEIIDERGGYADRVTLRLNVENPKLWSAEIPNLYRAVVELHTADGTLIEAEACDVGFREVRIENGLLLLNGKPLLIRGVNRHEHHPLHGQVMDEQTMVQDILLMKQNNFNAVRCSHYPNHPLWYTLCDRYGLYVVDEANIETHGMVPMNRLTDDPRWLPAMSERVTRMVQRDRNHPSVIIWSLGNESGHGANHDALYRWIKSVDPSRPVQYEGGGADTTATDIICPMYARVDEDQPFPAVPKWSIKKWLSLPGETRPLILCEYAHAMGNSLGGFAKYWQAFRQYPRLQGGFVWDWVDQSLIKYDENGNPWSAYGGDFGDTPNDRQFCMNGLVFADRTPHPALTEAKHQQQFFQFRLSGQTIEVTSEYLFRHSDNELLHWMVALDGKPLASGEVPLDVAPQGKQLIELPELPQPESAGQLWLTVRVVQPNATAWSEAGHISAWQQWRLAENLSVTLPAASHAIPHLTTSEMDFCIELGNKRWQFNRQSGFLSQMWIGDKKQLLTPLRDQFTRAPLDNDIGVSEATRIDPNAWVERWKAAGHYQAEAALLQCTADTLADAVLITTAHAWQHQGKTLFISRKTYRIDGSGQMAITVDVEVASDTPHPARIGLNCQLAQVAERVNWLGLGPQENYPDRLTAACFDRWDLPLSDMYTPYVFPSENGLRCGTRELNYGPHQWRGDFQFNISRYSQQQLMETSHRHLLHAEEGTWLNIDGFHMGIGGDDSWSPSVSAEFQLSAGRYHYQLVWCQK
DNA dC->dU-editing enzyme APOBEC-3G, sequence (Q9HC16 whole entry): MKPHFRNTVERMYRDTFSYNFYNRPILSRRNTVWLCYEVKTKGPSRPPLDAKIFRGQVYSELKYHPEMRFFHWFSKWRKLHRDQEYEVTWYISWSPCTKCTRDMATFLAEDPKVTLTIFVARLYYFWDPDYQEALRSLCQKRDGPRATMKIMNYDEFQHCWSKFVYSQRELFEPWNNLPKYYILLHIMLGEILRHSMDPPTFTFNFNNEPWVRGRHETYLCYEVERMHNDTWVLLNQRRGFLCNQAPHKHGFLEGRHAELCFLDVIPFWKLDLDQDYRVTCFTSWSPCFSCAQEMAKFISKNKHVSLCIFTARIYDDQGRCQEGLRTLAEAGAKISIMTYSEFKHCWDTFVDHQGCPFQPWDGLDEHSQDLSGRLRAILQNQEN
Large T antigen, sequence (P03070 whole entry): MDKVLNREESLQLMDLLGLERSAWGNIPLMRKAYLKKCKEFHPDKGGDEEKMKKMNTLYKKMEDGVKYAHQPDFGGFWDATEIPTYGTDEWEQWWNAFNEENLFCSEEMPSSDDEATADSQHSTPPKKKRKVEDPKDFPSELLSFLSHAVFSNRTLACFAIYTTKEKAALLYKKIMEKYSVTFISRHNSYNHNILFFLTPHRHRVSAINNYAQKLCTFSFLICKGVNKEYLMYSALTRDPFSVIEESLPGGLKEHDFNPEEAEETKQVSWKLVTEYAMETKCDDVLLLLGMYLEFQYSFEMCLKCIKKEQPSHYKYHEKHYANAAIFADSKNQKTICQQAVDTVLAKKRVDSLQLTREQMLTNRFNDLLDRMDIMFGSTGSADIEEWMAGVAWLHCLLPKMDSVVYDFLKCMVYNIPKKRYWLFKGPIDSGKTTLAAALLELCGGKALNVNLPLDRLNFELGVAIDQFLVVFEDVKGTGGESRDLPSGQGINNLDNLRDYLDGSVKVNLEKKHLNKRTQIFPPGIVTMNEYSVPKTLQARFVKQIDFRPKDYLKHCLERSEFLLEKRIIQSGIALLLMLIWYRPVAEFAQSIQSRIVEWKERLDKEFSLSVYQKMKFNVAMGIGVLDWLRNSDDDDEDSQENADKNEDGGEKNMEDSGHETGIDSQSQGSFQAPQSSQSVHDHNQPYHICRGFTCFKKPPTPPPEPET

In the case of `CCOC(=O)N1CCN(C(=O)c2cc3cc(Cl)ccc3[nH]2)CC1`, the IC50 (Beta-galactosidase) is reported as > 80 µM (inactive).

For `CCOC(=O)c1cc2sccc2n1CC(=O)Nc1ccc2c(c1)OCCO2`, the IC50 [1] was 35.9 µM (inactive), the IC50 (Steroidogenic factor 1) was 15.7 µM (inactive) and the IC50 [2] was 35.9 µM (inactive).

For `COc1ccc(CSc2nc3nc(C)cc(C)n3n2)cc1F`, the IC50 [3] was 2.4 µM (active) and the IC50 [4] was 11.2 µM (active).

For `CCN1CCN(C(=O)/C=C/c2ccc(OC)cc2)CC1`, the IC50 (Beta-galactosidase) was > 80 µM (inactive).

With `NC(=O)[C@H]1CC2(CC(c3cccc(NC(=O)COc4ccc(Cl)cc4)c3)=NO2)CN1C(=O)CC(c1ccccc1)c1ccccc1` (stereo partly drawn) the IC50 [5] was 12.7 µM (active) and the IC50 [6] was 37.7 µM (active).

With `COc1ccccc1NS(=O)(=O)c1ccc(C)c(C(=O)NCC(c2ccco2)N2CCCCC2)c1` (stereo not drawn) the IC50 [3] was 0.778 µM (active) and the IC50 [4] was 0.409 µM (active).

For `COc1cc(/C=C2\SC(Nc3ccccc3OC)=NC2=O)ccc1O`, the CC50 [7] was 100 µM (active) and the IC50 [8] was 22.2 µM (active).

For `CCOC(=O)c1cc(S(=O)(=O)N2CCc3ccccc32)cn1C`, the EC50 [9] was > 195 µM (not active) and the AC50 (Vero) was 17.9 µM (active).

In the case of `Cc1ccc(NC(=S)NC(=O)c2ccc(-c3ccc(Cl)cc3)o2)c(O)c1`, the EC50 [10] is reported as 7.63 µM (active), the EC50 (Streptococcus) is reported as 9.04 µM (active) and the EC50 (Melanocortin receptor 4) is reported as > 89.2 µM (inactive).

With `COc1ccc(C(=O)NCCNc2nc3c(C)cccc3cc2C#N)cc1OC` the AC50 (Vero) was 25.7 µM (active).

For `CCc1cc(O)nc(SCC(=O)Nc2ccc3c(c2)OCCO3)n1`, the IC50 [1] was 35.9 µM (inactive), the IC50 (Steroidogenic factor 1) was 12 µM (inactive) and the IC50 [2] was 35.9 µM (inactive).

For `COc1cc(-c2cc(NC=O)c3ncc(-c4cccc(C(F)(F)F)c4)n3c2)cc(OC)c1OC`, the IC50 (H9c2) was 51.3 µM (inactive) and the EC50 (Melanocortin receptor 4) was > 89.2 µM (inactive).

In the case of `O=C(O)c1ccc(Cl)c2c1C1C=CCC1C(c1ccccc1F)N2` (stereo not drawn), the IC50 [11] is reported as > 99 µM (inactive) and the IC50 [12] is reported as 27.4 µM (inactive).

For `CCOc1ccccc1N1C(=O)C(=O)N(CC(=O)c2ccc[nH]2)C1=O`, the IC50 [11] was > 99 µM (inactive) and the IC50 [12] was > 99 µM (inactive).

For `Oc1ccc(/C=N/Nc2cc(N3CCOCC3)nc(N3CCOCC3)n2)cc1O`, the IC50 (Large T antigen) was 23.1 µM (active), the IC50 [13] was 28.9 µM (active) and the CC50 [7] was 100 µM (active). The IC50 [8] was 52.1 µM (active) and the AC50 [14] was 7.86 µM (active).
